Experiments:
[1] = system: mRNA expressed from the genes (A) to (D) in rat liver; assay: Behavior of genes (mRNA expression level, oligo-DNA microarray) in rat liver after 28-day oral administration; format: in vivo; settings: mRNA vs vehicle control group
Method in brief: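 Male F344 SPF rats, 5 weeks old, four per group, dosed by oral gavage once daily for 28 days with test chemical or matched-volume solvent. Liver total RNA profiled on oligo-DNA microarray. Change ≥1.5-fold or ≤1/1.5 versus vehicle counted as significant if its direction matched that seen with other carcinogens.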

rodent = settings: in vivo; cited from earlier work
liver = settings: in vivo; cited from earlier work
[2] = gene group (A), Unigene No. Rn.167075
[3] = gene group (C), Unigene No. Rn.120914

Cc1cccc(N=Nc2ccc(N(C)C)cc2)c1 [TS076, 3′-Methyl-4-dimethylaminoazobenzene]
Behavior of gene caused by administration of chemical substance, Gene No. 4846 ([1]; gene group (A), Unigene No. Rn.144554): +
Behavior of gene caused by administration of chemical substance, Gene No. 2026 [1, 2]: +
Behavior of gene caused by administration of chemical substance, Gene No. 4218 [1, 2]: +
Behavior of gene caused by administration of chemical substance, Gene No. 6182 ([1]; gene group (A), Unigene No. Rn.5834): +
Behavior of gene caused by administration of chemical substance, Gene No. 5600 ([1]; gene group (A), Unigene No. Rn.9836): +
Behavior of gene caused by administration of chemical substance, Gene No. 1494 ([1]; gene group (B), Unigene No. Rn.1430): +
Behavior of gene caused by administration of chemical substance, Gene No. 2045 ([1]; gene group (B), Unigene No. Rn.19329): +
Behavior of gene caused by administration of chemical substance, Gene No. 2203 ([1]; gene group (B), Unigene No. Rn.21240): −
Behavior of gene caused by administration of chemical substance, Gene No. 533 ([1]; gene group (C), Unigene No. Rn.106184): +
Behavior of gene caused by administration of chemical substance, Gene No. 725 ([1]; gene group (C), Unigene No. Rn.108075): +
Behavior of gene caused by administration of chemical substance, Gene No. 1163 ([1]; gene group (C), Unigene No. Rn.11766): −
Behavior of gene caused by administration of chemical substance, Gene No. 4973 ([1]; gene group (C), Unigene No. Rn.118529): +
Behavior of gene caused by administration of chemical substance, Gene No. 4095 ([1]; gene group (C), Unigene No. Rn.119024): +
Behavior of gene caused by administration of chemical substance, Gene No. 1334 [1, 3]: −
Behavior of gene caused by administration of chemical substance, Gene No. 6620 [1, 3]: −
Behavior of gene caused by administration of chemical substance, Gene No. 6303 ([1]; gene group (C), Unigene No. Rn.123063): +
Behavior of gene caused by administration of chemical substance, Gene No. 5878 ([1]; gene group (C), Unigene No. Rn.143213): −
Behavior of gene caused by administration of chemical substance, Gene No. 1131 ([1]; gene group (C), Unigene No. Rn.144946): −
Behavior of gene caused by administration of chemical substance, Gene No. 1562 ([1]; gene group (C), Unigene No. Rn.14744): +
Behavior of gene caused by administration of chemical substance, Gene No. 1741 ([1]; gene group (C), Unigene No. Rn.1647): +
Behavior of gene caused by administration of chemical substance, Gene No. 893 ([1]; gene group (C), Unigene No. Rn.164817): −
Behavior of gene caused by administration of chemical substance, Gene No. 6026 ([1]; gene group (C), Unigene No. Rn.167685): −
Behavior of gene caused by administration of chemical substance, Gene No. 154 ([1]; gene group (C), Unigene No. Rn.185941): +
Behavior of gene caused by administration of chemical substance, Gene No. 1993 ([1]; gene group (C), Unigene No. Rn.18728): +
Behavior of gene caused by administration of chemical substance, Gene No. 813 ([1]; gene group (C), Unigene No. Rn.201760): −
Behavior of gene caused by administration of chemical substance, Gene No. 2494 ([1]; gene group (C), Unigene No. Rn.23969): −
Behavior of gene caused by administration of chemical substance, Gene No. 2546 ([1]; gene group (C), Unigene No. Rn.24561): −
Behavior of gene caused by administration of chemical substance, Gene No. 3776 ([1]; gene group (C), Unigene No. Rn.43232): −
Behavior of gene caused by administration of chemical substance, Gene No. 3929 ([1]; gene group (C), Unigene No. Rn.4620): −
Behavior of gene caused by administration of chemical substance, Gene No. 1119 ([1]; gene group (C), Unigene No. Rn.9757): −
Behavior of gene caused by administration of chemical substance, Gene No. 6742 ([1]; gene group (C), Unigene No. Rn.9779): −
Behavior of gene caused by administration of chemical substance, Gene No. 5634 ([1]; gene group (C), Unigene No. Rn.9862): −
Behavior of gene caused by administration of chemical substance, Gene No. 5726 ([1]; gene group (D), Unigene No. Rn.9939): −
Carcinogenicity (rodent): C+
Liver carcinogenicity (liver): Cr+
